Source: paper PMC5078040 (Oncotarget, 2016)

Key:
[1] = biological target: T1, ABL1(M351T)-phosphorylated (Homo sapiens, UniProt P00519, M351T); assay: KinomeScan; format: binding; conditions: 1uM
T1 construct: purchased DiscoveRx KINOMEscan

ADCK4 = biological target: T2, ADCK4 (Homo sapiens, UniProt Q96D53); assay: KinomeScan; format: binding; conditions: 1uM
T2 construct: purchased DiscoveRx KINOMEscan

BIKE = biological target: T3, BIKE (Homo sapiens, UniProt Q9NSY1); assay: KinomeScan; format: binding; conditions: 1uM
T3 construct: purchased DiscoveRx KINOMEscan

BTK = biological target: T4, BTK (Homo sapiens, UniProt Q06187); assay: KinomeScan; format: binding; conditions: 1uM
T4 construct: purchased DiscoveRx KINOMEscan

CAMK1D = biological target: T5, CAMK1D (Homo sapiens, UniProt Q8IU85); assay: KinomeScan; format: binding; conditions: 1uM
T5 construct: purchased DiscoveRx KINOMEscan

CDK2 = biological target: T6, CDK2 (Homo sapiens, UniProt P24941); assay: KinomeScan; format: binding; conditions: 1uM
T6 construct: purchased DiscoveRx KINOMEscan

EPHA1 = biological target: T7, EPHA1 (Homo sapiens, UniProt P21709); assay: KinomeScan; format: binding; conditions: 1uM
T7 construct: purchased DiscoveRx KINOMEscan

ERK1 = biological target: T8, ERK1 (Homo sapiens, UniProt P27361); assay: KinomeScan; format: binding; conditions: 1uM
T8 construct: purchased DiscoveRx KINOMEscan

FGR = biological target: T9, FGR (Homo sapiens, UniProt P09769); assay: KinomeScan; format: binding; conditions: 1uM
T9 construct: purchased DiscoveRx KINOMEscan

HCK = biological target: T10, HCK (Homo sapiens, UniProt P08631); assay: KinomeScan; format: binding; conditions: 1uM
T10 construct: purchased DiscoveRx KINOMEscan

ITK = biological target: T11, ITK (Homo sapiens, UniProt Q08881); assay: KinomeScan; format: binding; conditions: 1uM
T11 construct: purchased DiscoveRx KINOMEscan

KIT(V559D,T670I) = biological target: T12, KIT(V559D,T670I) (Homo sapiens, UniProt P10721, T670I/V559D); assay: KinomeScan; format: binding; conditions: 1uM
T12 construct: purchased DiscoveRx KINOMEscan

LATS1 = biological target: T13, LATS1 (Homo sapiens, UniProt O95835); assay: KinomeScan; format: binding; conditions: 1uM
T13 construct: purchased DiscoveRx KINOMEscan

MAP4K5 = biological target: T14, MAP4K5 (Homo sapiens, UniProt Q9Y4K4); assay: KinomeScan; format: binding; conditions: 1uM
T14 construct: purchased DiscoveRx KINOMEscan

MARK1 = biological target: T15, MARK1 (Homo sapiens, UniProt Q9P0L2); assay: KinomeScan; format: binding; conditions: 1uM
T15 construct: purchased DiscoveRx KINOMEscan

MYLK = biological target: T16, MYLK (Homo sapiens, UniProt Q15746); assay: KinomeScan; format: binding; conditions: 1uM
T16 construct: purchased DiscoveRx KINOMEscan

NIK = biological target: T17, NIK (Homo sapiens, UniProt Q99558); assay: KinomeScan; format: binding; conditions: 1uM
T17 construct: purchased DiscoveRx KINOMEscan

NLK = biological target: T18, NLK (Homo sapiens, UniProt Q9UBE8); assay: KinomeScan; format: binding; conditions: 1uM
T18 construct: purchased DiscoveRx KINOMEscan

p38-delta = biological target: T19, p38-delta (Homo sapiens, UniProt O15264); assay: KinomeScan; format: binding; conditions: 1uM
T19 construct: purchased DiscoveRx KINOMEscan

PAK7 = biological target: T20, PAK7 (Homo sapiens, UniProt Q9P286); assay: KinomeScan; format: binding; conditions: 1uM
T20 construct: purchased DiscoveRx KINOMEscan

PHKG1 = biological target: T21, PHKG1 (Homo sapiens, UniProt Q16816); assay: KinomeScan; format: binding; conditions: 1uM
T21 construct: purchased DiscoveRx KINOMEscan

PIP5K1C = biological target: T22, PIP5K1C (Homo sapiens, UniProt O60331); assay: KinomeScan; format: binding; conditions: 1uM
T22 construct: purchased DiscoveRx KINOMEscan

PRKD2 = biological target: T23, PRKD2 (Homo sapiens, UniProt Q9BZL6); assay: KinomeScan; format: binding; conditions: 1uM
T23 construct: purchased DiscoveRx KINOMEscan

PRKD3 = biological target: T24, PRKD3 (Homo sapiens, UniProt O94806); assay: KinomeScan; format: binding; conditions: 1uM
T24 construct: purchased DiscoveRx KINOMEscan

RIOK1 = biological target: T25, RIOK1 (Homo sapiens, UniProt Q9BRS2); assay: KinomeScan; format: binding; conditions: 1uM
T25 construct: purchased DiscoveRx KINOMEscan

ROCK1 = biological target: T26, ROCK1 (Homo sapiens, UniProt Q13464); assay: KinomeScan; format: binding; conditions: 1uM
T26 construct: purchased DiscoveRx KINOMEscan

SGK3 = biological target: T27, SGK3 (Homo sapiens, UniProt Q96BR1); assay: KinomeScan; format: binding; conditions: 1uM
T27 construct: purchased DiscoveRx KINOMEscan

SIK = biological target: T28, SIK (Homo sapiens, UniProt P57059); assay: KinomeScan; format: binding; conditions: 1uM
T28 construct: purchased DiscoveRx KINOMEscan

TEC = biological target: T29, TEC (Homo sapiens, UniProt P42680); assay: KinomeScan; format: binding; conditions: 1uM
T29 construct: purchased DiscoveRx KINOMEscan

TGFBR1 = biological target: T30, TGFBR1 (Homo sapiens, UniProt P36897); assay: KinomeScan; format: binding; conditions: 1uM
T30 construct: purchased DiscoveRx KINOMEscan

TLK1 = biological target: T31, TLK1 (Homo sapiens, UniProt Q9UKI8); assay: KinomeScan; format: binding; conditions: 1uM
T31 construct: purchased DiscoveRx KINOMEscan

TLK2 = biological target: T32, TLK2 (Homo sapiens, UniProt Q86UE8); assay: KinomeScan; format: binding; conditions: 1uM
T32 construct: purchased DiscoveRx KINOMEscan

TNNI3K = biological target: T33, TNNI3K (Homo sapiens, UniProt Q59H18); assay: KinomeScan; format: binding; conditions: 1uM
T33 construct: purchased DiscoveRx KINOMEscan

TRKA = biological target: T34, TRKA (Homo sapiens, UniProt P04629); assay: KinomeScan; format: binding; conditions: 1uM
T34 construct: purchased DiscoveRx KINOMEscan

YSK1 = biological target: T35, YSK1 (Homo sapiens, UniProt O00506); assay: KinomeScan; format: binding; conditions: 1uM
T35 construct: purchased DiscoveRx KINOMEscan

PIK3C2A = biological target: T36, PIK3C2A (Homo sapiens, UniProt O00443); assay: ADP-glo biochemical assay
T36 construct: purchased Invitrogen
Experimental: The reaction in each tube was started immediately by adding ATP and kept going for an hour under 37°C. After the tube cooled for 5 minutes at room temperature, 5 μL solvent reactions were carried out in a 384-well plate. Then 5 μL of ADP-Glo™ reagent was added into each well to stop the reaction and consume the remaining ADP within 40 minutes. At the end, 10 μL of kinase detection reagent was added into the well and incubated for 30 minutes to produce a luminescence signal. Luminescence signal was measured with an automated plate reader (Perkin-Elmer Envision) and each measurement was performed in triplicate.

AML patient primary cell = assay: Anti-proliferative efficacy against patient primary cells; format: cell-based; conditions: Homo sapiens
Experimental: Mononuclear cells were isolated from AML patients. Mononuclear cells were isolated by density gradient centrifugation through Ficoll-Plaque Plus (Amersham Pharmacia Biotech AB, Uppsala, Sweden) at 2000 rpm for 30 minutes, followed by two washes in 1X PBS. Freeze-thawed cells were then cultured in liquid culture (DMEM, supplemented with 20% FBS). All blood and bone marrow samples from AML patients were obtained through written consent under approval of the Dana Farber Cancer Institute Institutional Review Board. The ethics committees approved the consent procedure.
Cells were grown in 96-well culture plates (3000-4000/well). […] Cell proliferation was determined after treatment with compounds for 72 hours. Cell viability was measured using the CellTiter–Glo Assay Kit (Promega, USA), according to the manufacturer's instructions, and luminescence was measured in a multi-label reader (Envision, PerkinElmer, USA). Data were normalized to control groups (DMSO) and represented by the mean of three independent measurements with standard error <20%. GI50 values were calculated using Prism 5.0 (GraphPad Software, San Diego, CA).

T4 sequence (Q06187 whole entry): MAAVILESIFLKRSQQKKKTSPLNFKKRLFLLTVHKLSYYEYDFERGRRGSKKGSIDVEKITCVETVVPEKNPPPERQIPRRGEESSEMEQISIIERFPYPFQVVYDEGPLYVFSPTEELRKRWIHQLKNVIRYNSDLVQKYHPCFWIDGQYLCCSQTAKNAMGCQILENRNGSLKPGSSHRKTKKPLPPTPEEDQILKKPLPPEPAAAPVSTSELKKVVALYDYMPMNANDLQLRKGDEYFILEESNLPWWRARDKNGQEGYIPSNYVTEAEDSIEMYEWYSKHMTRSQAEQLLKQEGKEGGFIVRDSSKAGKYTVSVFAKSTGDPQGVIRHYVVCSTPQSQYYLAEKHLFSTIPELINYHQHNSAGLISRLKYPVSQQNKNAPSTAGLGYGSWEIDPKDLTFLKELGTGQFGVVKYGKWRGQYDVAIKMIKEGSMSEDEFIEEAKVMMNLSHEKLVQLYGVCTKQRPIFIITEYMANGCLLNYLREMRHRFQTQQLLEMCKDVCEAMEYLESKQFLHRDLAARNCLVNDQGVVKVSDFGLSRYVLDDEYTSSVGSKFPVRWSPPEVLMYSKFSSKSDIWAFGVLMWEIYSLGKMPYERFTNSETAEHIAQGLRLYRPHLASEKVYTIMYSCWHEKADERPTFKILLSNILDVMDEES
T12 sequence (P10721 26-976 V559D/T670I): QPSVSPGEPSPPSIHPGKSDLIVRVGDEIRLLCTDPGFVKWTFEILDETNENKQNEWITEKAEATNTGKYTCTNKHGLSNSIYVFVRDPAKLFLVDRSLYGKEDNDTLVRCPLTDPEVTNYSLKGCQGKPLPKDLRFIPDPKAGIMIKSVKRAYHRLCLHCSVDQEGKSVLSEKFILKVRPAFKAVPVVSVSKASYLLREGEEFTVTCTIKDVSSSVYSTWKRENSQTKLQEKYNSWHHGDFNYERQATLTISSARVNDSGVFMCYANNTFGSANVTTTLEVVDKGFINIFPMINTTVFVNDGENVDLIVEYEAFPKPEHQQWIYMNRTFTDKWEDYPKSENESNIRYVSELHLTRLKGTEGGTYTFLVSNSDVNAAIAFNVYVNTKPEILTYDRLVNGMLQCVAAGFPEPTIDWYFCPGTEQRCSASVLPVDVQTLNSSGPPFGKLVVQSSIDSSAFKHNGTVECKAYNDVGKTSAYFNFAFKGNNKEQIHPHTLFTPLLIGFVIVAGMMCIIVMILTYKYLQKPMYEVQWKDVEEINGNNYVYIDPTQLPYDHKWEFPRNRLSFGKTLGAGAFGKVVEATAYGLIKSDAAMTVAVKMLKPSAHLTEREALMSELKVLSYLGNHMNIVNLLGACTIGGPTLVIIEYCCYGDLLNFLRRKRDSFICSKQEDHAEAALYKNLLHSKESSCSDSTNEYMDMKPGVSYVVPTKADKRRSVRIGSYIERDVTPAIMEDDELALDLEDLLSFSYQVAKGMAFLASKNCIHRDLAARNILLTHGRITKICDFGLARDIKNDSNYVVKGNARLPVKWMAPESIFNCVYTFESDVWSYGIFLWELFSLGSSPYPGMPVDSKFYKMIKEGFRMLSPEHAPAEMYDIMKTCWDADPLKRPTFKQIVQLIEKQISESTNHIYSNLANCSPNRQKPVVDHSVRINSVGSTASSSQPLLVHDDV
T32 sequence (Q86UE8 whole entry): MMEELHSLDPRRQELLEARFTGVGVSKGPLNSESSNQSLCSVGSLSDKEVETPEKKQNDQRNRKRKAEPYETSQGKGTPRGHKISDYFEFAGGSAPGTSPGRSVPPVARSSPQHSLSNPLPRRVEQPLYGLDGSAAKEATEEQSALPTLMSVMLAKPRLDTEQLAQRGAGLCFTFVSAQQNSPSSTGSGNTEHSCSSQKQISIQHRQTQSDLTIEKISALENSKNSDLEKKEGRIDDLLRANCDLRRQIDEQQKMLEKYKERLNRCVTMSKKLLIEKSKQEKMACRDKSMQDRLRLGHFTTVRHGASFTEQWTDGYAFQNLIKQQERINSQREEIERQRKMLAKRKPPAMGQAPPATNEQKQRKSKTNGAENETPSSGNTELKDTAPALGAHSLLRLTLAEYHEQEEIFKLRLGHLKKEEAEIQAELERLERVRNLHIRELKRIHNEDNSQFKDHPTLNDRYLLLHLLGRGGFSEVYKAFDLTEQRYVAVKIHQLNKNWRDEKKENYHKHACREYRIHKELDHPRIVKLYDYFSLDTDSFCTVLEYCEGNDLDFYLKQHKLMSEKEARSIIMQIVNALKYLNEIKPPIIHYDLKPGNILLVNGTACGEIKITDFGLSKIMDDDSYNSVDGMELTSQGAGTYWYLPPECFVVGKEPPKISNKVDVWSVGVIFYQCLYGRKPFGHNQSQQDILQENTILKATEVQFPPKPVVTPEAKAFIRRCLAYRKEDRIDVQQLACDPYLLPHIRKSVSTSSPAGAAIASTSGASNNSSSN
T3 sequence (Q9NSY1 whole entry): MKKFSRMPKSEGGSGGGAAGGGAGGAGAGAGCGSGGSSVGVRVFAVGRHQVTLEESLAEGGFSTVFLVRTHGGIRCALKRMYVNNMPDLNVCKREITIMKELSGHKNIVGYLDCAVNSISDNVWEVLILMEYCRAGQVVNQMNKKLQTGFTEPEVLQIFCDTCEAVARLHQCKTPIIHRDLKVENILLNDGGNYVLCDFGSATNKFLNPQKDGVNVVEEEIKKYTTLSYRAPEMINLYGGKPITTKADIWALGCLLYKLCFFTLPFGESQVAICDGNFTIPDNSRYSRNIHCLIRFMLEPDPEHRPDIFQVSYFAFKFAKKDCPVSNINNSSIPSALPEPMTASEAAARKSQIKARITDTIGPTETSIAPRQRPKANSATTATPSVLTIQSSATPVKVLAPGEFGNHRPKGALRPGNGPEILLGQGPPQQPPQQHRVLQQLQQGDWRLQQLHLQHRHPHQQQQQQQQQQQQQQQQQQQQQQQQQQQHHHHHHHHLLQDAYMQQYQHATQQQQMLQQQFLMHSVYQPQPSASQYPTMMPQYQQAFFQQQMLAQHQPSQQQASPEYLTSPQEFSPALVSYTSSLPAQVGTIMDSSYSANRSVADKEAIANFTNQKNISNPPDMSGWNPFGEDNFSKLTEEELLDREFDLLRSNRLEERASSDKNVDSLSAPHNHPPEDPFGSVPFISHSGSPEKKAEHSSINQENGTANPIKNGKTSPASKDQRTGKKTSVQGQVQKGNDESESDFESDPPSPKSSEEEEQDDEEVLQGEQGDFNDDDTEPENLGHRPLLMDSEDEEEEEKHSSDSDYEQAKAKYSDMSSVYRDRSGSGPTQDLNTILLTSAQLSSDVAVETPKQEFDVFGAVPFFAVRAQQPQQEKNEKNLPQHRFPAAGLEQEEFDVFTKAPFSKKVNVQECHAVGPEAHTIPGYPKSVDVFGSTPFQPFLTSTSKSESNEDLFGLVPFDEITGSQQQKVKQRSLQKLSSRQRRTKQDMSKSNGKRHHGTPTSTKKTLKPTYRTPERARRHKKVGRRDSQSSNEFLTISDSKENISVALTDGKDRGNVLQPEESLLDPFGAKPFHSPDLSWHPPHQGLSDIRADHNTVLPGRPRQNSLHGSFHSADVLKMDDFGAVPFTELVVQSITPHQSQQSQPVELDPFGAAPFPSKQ
T15 sequence (Q9P0L2 whole entry): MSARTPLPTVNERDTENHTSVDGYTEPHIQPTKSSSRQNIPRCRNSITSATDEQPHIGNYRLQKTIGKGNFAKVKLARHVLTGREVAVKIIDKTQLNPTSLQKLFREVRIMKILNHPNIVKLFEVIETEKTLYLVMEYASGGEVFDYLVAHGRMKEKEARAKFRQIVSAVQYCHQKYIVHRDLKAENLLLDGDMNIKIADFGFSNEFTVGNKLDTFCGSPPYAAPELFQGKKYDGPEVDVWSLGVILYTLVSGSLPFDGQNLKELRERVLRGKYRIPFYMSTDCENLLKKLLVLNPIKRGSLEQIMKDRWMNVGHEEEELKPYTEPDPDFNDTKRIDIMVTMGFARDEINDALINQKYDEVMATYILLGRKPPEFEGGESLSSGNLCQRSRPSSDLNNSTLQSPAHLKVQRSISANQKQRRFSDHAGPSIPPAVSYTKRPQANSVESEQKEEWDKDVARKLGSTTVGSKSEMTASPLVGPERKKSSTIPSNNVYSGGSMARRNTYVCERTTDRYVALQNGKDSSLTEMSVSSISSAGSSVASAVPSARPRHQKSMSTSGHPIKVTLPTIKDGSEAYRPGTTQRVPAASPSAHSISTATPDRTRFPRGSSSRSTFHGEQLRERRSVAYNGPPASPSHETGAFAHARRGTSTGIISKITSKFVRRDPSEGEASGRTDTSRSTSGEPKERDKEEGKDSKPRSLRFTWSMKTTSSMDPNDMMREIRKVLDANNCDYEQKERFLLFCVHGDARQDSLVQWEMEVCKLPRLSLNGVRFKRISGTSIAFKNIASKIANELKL
T9 sequence (P09769 whole entry): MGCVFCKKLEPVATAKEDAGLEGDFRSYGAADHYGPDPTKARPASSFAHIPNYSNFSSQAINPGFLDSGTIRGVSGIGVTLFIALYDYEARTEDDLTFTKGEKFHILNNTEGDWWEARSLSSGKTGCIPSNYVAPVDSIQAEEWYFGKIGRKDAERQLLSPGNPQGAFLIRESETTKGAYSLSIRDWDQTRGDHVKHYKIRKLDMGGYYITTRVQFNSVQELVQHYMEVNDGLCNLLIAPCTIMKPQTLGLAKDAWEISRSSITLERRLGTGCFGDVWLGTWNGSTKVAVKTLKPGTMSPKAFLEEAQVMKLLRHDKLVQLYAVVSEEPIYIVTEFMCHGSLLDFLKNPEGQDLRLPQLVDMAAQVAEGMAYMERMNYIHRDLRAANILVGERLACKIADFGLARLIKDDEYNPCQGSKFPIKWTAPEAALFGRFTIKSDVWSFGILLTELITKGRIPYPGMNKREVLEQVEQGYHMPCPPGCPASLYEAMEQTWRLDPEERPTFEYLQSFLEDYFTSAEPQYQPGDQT

## Cc1nc(NC(=O)[C@@H](N)C(C)C)sc1-c1cnc(Cl)c(NS(=O)(=O)c2ccccc2)c1 [PI3KD-IN-015]
[1]
  KinomeScan ABL1(M351T)-phosphorylated: 98
ADCK4
  KinomeScan ADCK4: 95
BIKE
  KinomeScan BIKE: 73
BTK
  KinomeScan BTK: 81
CAMK1D
  KinomeScan CAMK1D: 94
CDK2
  KinomeScan CDK2: 88
EPHA1
  KinomeScan EPHA1: 100
ERK1
  KinomeScan ERK1: 100
FGR
  KinomeScan FGR: 100
HCK
  KinomeScan HCK: 100
ITK
  KinomeScan ITK: 100
KIT(V559D,T670I)
  KinomeScan KIT(V559D,T670I): 90
LATS1
  KinomeScan LATS1: 98
MAP4K5
  KinomeScan MAP4K5: 100
MARK1
  KinomeScan MARK1: 100
MYLK
  KinomeScan MYLK: 94
NIK
  KinomeScan NIK: 83
NLK
  KinomeScan NLK: 92
p38-delta
  KinomeScan p38-delta: 98
PAK7
  KinomeScan PAK7: 89
PHKG1
  KinomeScan PHKG1: 100
PIP5K1C
  KinomeScan PIP5K1C: 72
PRKD2
  KinomeScan PRKD2: 94
PRKD3
  KinomeScan PRKD3: 100
RIOK1
  KinomeScan RIOK1: 94
ROCK1
  KinomeScan ROCK1: 100
SGK3
  KinomeScan SGK3: 91
SIK
  KinomeScan SIK: 99
TEC
  KinomeScan TEC: 100
TGFBR1
  KinomeScan TGFBR1: 97
TLK1
  KinomeScan TLK1: 79
TLK2
  KinomeScan TLK2: 100
TNNI3K
  KinomeScan TNNI3K: 95
TRKA
  KinomeScan TRKA: 96
YSK1
  KinomeScan YSK1: 100
PIK3C2A
  IC50: > 10 µM
AML patient primary cell; AML1, patient primary cell AML1
  GI50: 1.83 µM
AML patient primary cell; AML3, patient primary cell AML3
  GI50: 9.2 µM
AML patient primary cell; most of AML patient cells
  GI50: < 10 µM
AML patient primary cell; patient primary cell AML2
  GI50: 0.85 µM
AML patient primary cell; patient primary cell AML4
  GI50: 2.8 µM
AML patient primary cell; patient primary cell AML5
  GI50: 6.3 µM
AML patient primary cell; patient primary cell AML6
  GI50: > 10 µM
